Data: patent US20060014740A1 (priority 2003, published 2006)
Where a name gives a salt, the structure may show the parent alone. Read-outs that look alike come from different tables or passages of the source.

Experiments:
Assay type in all cases: cell-based
[1] = system: TSU-Pr1 human prostate cancer cells; assay: SRB cytotoxicity assay, TSU-Pr1
Experimental: (§1) Dr. Mitchell Steiner at University of Tennessee Health Science Center, kindly provided PPG-1 and TSU-PrI cells.
(§2) For in vitro cytotoxicity screening, 1000 to 5000 cells were plated into each well of 96-well plates depending on growth rate, and exposed to different concentrations of a test compound for 96 h in three to five replicates. All the compounds were dissolved in dimethyl sulfoxide at 5 to 20 mM, and diluted to desired concentrations in complete culture medium. Cell numbers at the end of the drug treatment were measured by the SRB assay (Gududuru et al., “Synthesis and Biological Evaluation of Novel Cytotoxic Phospholipids for Prostate Cancer,” Bioorg. Med. Chem. Lett. 14:4919-4923 (2004); Rubinstein et at., “Comparison of in vitro Anticancer-Drug-Screening Data Generated with a Tetrazolium Assay Versus a Protein Assay Against a Diverse Panel of Human Tumor Cell Lines,” J. Naatl, Cancer Inst. 82:1113-1118 (1990), each of which is hereby incorporated by reference in its entirety). Briefly, the cells were fixed with 10% of trichloroacetic acid, stained with 0.4% SRB, and the absorbances at 540 nm was measured using a plate reader (DYNEX Technologies, Chantilly, Va.).
(§3) The antiproliferative activity of all the synthesized compounds was evaluated against five human prostate cancer cell lines and in RH7777 cells (negative control) using the sulforhodamine B (SRB) assay (see description in Example 5 above).
(§4) The chosen cell lines represent different basal levels of active AKT and LPL receptor expression (discussed later). Cells were exposed to a wide range of concentrations (0 to 100 μM) of the indicated compound for 96 h. Cell numbers at the end of treatment were measured using the sulforhodamine B (SRB) assay^5.
(§5) Cells were exposed to a wide range of concentrations (0 to 100 μM) of the particular compound for 96 h in 96 well plates. Cells were fixed with 10% trichloroacetic acid, washed five times with water. The plates were air dried overnight and fixed cells were stained with SRB solution. The cellular protein-bound SRB was measured at 540 nm using a plate reader. Cell numbers at the end of the treatment were measured.
as §5, with “96-well” for “96 well”, “calculated as a percentage of untreated control.” for “measured.”

[2] = system: RH7777 rat hepatoma cells; assay: SRB cytotoxicity assay, RH7777 control cell line; settings: read-out: IC50 RH7777
Experimental: as §2, §3, §4, §5
as §5, with “96-well” for “96 well”, “calculated as a percentage of untreated control.” for “measured.”

[3] = system: DU-145 human prostate cancer cells; assay: SRB cytotoxicity assay, DU-145
Experimental: as §2, §3, §4, §5
as §5, with “96-well” for “96 well”, “calculated as a percentage of untreated control.” for “measured.”

[4] = system: LNCaP human prostate cancer cells; assay: SRB cytotoxicity assay, LNCaP; settings: for IC50: read-out: IC50 LNCaP
Experimental: as §2, §3, §4, §5
as §5, with “96-well” for “96 well”, “calculated as a percentage of untreated control.” for “measured.”

[5] = system: human breast cancer cell line (MCF-7); assay: SRB cytotoxicity assay, MCF-7; settings: read-out: IC50 MCF-7
Experimental: as §2
In vitro cytotoxicity assay was performed by the same sulforhodamine B (SRB) assay (described above). The compounds shown in Table 8 below where tested for activity against the breast cancer and ovarian cancer cell lines.
as §4, §5

[6] = system: PPC-1 human prostate cancer cells; assay: SRB cytotoxicity assay, PPC-1; settings: read-out: IC50 PPC-1
Experimental: as §1, §2, §3, §4, §5
as §5, with “96-well” for “96 well”, “calculated as a percentage of untreated control.” for “measured.”

[7] = system: PC-3 human prostate cancer cells; assay: SRB cytotoxicity assay, PC-3; settings: for IC50: read-out: IC50 PC-3
Experimental: as §2, §3, §4, §5
as §5, with “96-well” for “96 well”, “calculated as a percentage of untreated control.” for “measured.”

[8] = Homo sapiens, TSU-Pr1, Example 11 table, 96 h, read-out: IC50 TSU-Pr1
[9] = Rattus norvegicus, RH7777, Example 11 table, 96 h
[10] = Homo sapiens, DU-145, Example 11 table, 96 h, read-out: IC50 DU145
[11] = Homo sapiens, LNCaP, Example 11 table, 96 h
[12] = Homo sapiens, MCF7, Example 11 table, 96 h
[13] = Homo sapiens, PPC-1, Example 11 table, 96 h
[14] = Homo sapiens, Example 11 table, 96 h
[15] = Rattus norvegicus, RH7777, Table 3, control cell line, 96 h
[16] = Homo sapiens, DU-145, read-out: IC50 DU-145, Table 3, 96 h
[17] = Homo sapiens, LNCaP, Table 3, 96 h
[18] = Homo sapiens, MCF7, Table 8, breast cancer cell line
[19] = Homo sapiens, PPC-1, Table 3, 96 h

Row | Structure (SMILES) | IC50 [1, 8] [µM] | IC50 [2, 9] [µM] | IC50 [3, 10] [µM] | IC50 [4, 11] [µM] | IC50 [5, 12] [µM] | IC50 [6, 13] [µM] | IC50 [7, 14] [µM] | also measured
1 | CCCCCCCCCCCCC1N[C@H](C(=O)O)CS1 (some centres unmarked) | ~20 | > 20 | ~20 | 16.1 | 16.3 | 12.6 | ~20 | 
2 | CCCCCCCCCCCCC1OC[C@@H](COP(=O)(O)O)O1.N.N (some centres unmarked) |  |  |  |  |  |  |  | IC50 ([1]; Example 11 table, 96 h, read-out: IC50 TSU-Pr1): > 100 µM; IC50 ([2]; Example 11 table, 96 h): > 100 µM; IC50 ([3]; Example 11 table, 96 h, read-out: IC50 DU145): > 100 µM; IC50 LNCaP ([4]; Example 11 table, 96 h): No toxicity; IC50 ([5]; Example 11 table, 96 h): > 100 µM; IC50 ([6]; Example 11 table, 96 h): > 100 µM; IC50 PC-3 ([7]; Example 11 table, 96 h): No toxicity
3 | O=C(O)[C@@H]1CSC(c2ccc(-c3ccccc3)cc2)N1 (some centres unmarked) | ~100 | > 100 | > 100 | 71 | > 100 | > 100 | > 100 | 
4 | COc1ccc(C2N[C@H](C(=O)O)CS2)cc1 (some centres unmarked) |  |  |  |  |  |  |  | IC50 ([1]; Homo sapiens, TSU-Pr1, 96 h, read-out: IC50 TSU-Pr1): > 100 µM; IC50 ([2]; Rattus norvegicus, RH7777, 96 h): > 100 µM; IC50 ([3]; Homo sapiens, DU-145, 96 h, read-out: IC50 DU145): ~100 µM; IC50 ([4]; Homo sapiens, LNCaP, 96 h): ~50 µM; IC50 ([5]; Homo sapiens, MCF7, 96 h): ~100 µM; IC50 ([6]; Homo sapiens, PPC-1, 96 h): > 100 µM; IC50 ([7]; Homo sapiens, 96 h): > 100 µM
5 | O=C(O)[C@@H]1CSC(c2cc(F)cc(F)c2)N1 (some centres unmarked) | > 100 | > 100 | > 100 | > 100 | > 100 | > 100 | > 100 | 
6 | N#Cc1ccc(C2N[C@H](C(=O)O)CS2)cc1 (some centres unmarked) | > 100 | > 100 | > 100 | > 100 | > 100 | > 100 | > 100 | 
7 | O=C(O)[C@@H]1CSC(c2ccc(F)cc2)N1 (some centres unmarked) | > 100 | > 100 | > 100 | > 100 | > 100 | > 100 | > 100 | 
8 | O=C(O)[C@@H]1CSC(c2c(Cl)cccc2Cl)N1 (some centres unmarked) | > 100 | > 100 | > 100 | > 100 | > 100 | > 100 | > 100 | 
9 | O=C(O)[C@@H]1CSC(c2cccnc2)N1 (some centres unmarked) | ~100 | > 100 | > 100 | > 100 | > 100 | > 100 | > 100 | 
10 | CC(C)(C)OC(=O)N[C@H](CO)C(=O)NCCCCCCCCCCCCNC(=O)[C@@H](CO)NC(=O)OC(C)(C)C | 3.7 | 8.5 | > 20 | 12.5 | 10.6 | > 20 | > 20 | 
11 | CCCCCCCCCCCCCCCCCCNC(=O)[C@@H]1CSC(CCCCCCCCCCCC)N1 (mixture of isomers) [Compound 7, (2RS, 4R)-2-Dodecylthiazolidine-4-carboxylic acid octadecylamide] |  |  |  |  |  |  |  | IC50 ([1]; Homo sapiens, TSU-Pr1, Table 3, 96 h, read-out: IC50 TSU-Pr1): 10.7 µM; IC50 [2, 15]: ~20 µM; IC50 [3, 16]: 8.9 µM; IC50 [4, 17]: 11.9 µM; IC50 [5, 18]: 10.4 µM; IC50 [6, 19]: 13 µM; IC50 ([7]; Homo sapiens, Table 3, 96 h): 15 µM
12 | CCCCCCCCCCCCCCCCCCNC(=O)[C@@H]1CSC(c2ccc(OC)cc2)N1 (mixture of isomers) [Compound 15-HCI, (2RS, 4R)-2-(4-Methoxy-phenyl)-thiazolidine-4-carboxylic acid octadecylamide Hydrochloride] |  |  |  |  |  |  |  | IC50 [2, 15]: > 20 µM; IC50 [3, 16]: 8.7 µM; IC50 [4, 17]: 2.1 µM; IC50 [5, 18]: 16.3 µM; IC50 [6, 19]: 1.5 µM; IC50 ([7]; Homo sapiens, Table 3, 96 h): ~20 µM
13 | CCCCCCCCCCCCCCCCCCCNC(=O)[C@@H]1CSC(c2ccccc2)N1 (mixture of isomers) [Compound 6-HCI, (2RS, 4R)-2-Phenylthiazolidine-4-carboxylic acid nonadecylamide Hydrochloride] |  |  |  |  |  |  |  | IC50 ([1]; Table 3, 96 h, read-out: IC50 TSU-Pr1): > 20 µM; IC50 ([3]; read-out: IC50 DU-145, Table 3, 96 h): > 20 µM; IC50 ([4]; Table 3, 96 h): 13.6 µM; IC50 ([5]; Table 8, breast cancer cell line): > 20 µM; IC50 ([6]; Table 3, 96 h): 16.8 µM
14 | CCCCCCCCCCCCCCCCCCNC(=O)[C@@H]1CSC(c2cccc(O)c2)N1 (mixture of isomers) [Compound 14, (2RS, 4R)-2-(3-Hydroxy-phenyl)-thiazolidine-4-carboxylic add octadecylamide] |  |  |  |  |  |  |  | IC50 ([2]; Table 3, control cell line, 96 h): 31 µM
15 | CCCCCCCCCCCCCCCCCCNC(=O)[C@@H]1CSC(c2ccc(C#N)cc2)N1 (mixture of isomers) [Compound 22, (2RS, 4R)-2-(4-Cyano-phenyl)-thiazolidine-4-carboxylic acid octadccylamide] |  |  |  |  |  |  |  | IC50 ([2]; Table 4, control cell line, 96 h): > 20 µM; IC50 ([7]; Table 4, 96 h): > 20 µM
16 | O=c1[nH]cc(F)c(=O)[nH]1 [5-FU, 5-fluorouracil, reference compound] |  |  |  |  |  |  |  | IC50 ([4]; Homo sapiens, LNCaP, Example 10 table, 96 h): 4.9 µM; IC50 ([4]; Homo sapiens, LNCaP, Table 6): 4.9 µM
17 | COc1ccc(CCNC(=O)CN2C(=O)CSC2c2ccccc2)c(OC)c1 (centres unmarked) [Compound 78] |  |  |  |  |  |  |  | IC50 ([1]; Table 6, read-out: IC50 TSU-Pr1): > 100 µM; IC50 ([2]; Table 6, control cell line): > 100 µM; IC50 ([3]; read-out: IC50 DU-145, Table 6): > 100 µM; IC50 ([4]; Table 6): > 100 µM; IC50 ([6]; Table 6): > 100 µM; IC50 ([7]; Table 6): > 100 µM
18 | CCCCCCCCCCCCCCCCCCNCCN1C(=O)CSC1c1ccccc1 (centres unmarked) [Compound 79, 3-(2-(octadecylamino)ethyl)-2-phenylthiazolidin-4-one] |  |  |  |  |  |  |  | IC50 ([1]; Homo sapiens, TSU-Pr1, Table 7, read-out: IC50 TSU): 6.1 µM; IC50 ([2]; Rattus norvegicus, RH7777, Table 7, control cell line): > 20 µM; IC50 ([3]; Homo sapiens, DU-145, read-out: IC50 DU-145, Table 7): 15.8 µM; IC50 ([4]; Homo sapiens, LNCaP, Table 7): > 20 µM; IC50 ([6]; Homo sapiens, PPC-1, Table 7): 12 µM; IC50 ([7]; Homo sapiens, Table 7): > 20 µM
19 | CCCCCCCCCCCCCCCCCCCCNCC(CO)NC (centres unmarked) [S3] |  |  |  |  |  |  |  | IC50 ([4]; Example 10 table, 96 h): 3.3 µM; IC50 ([5]; Example 10 table, 96 h): 2.9 µM
20 | CCCCCCCCCCCCCCCCCCNCC(CO)NC (centres unmarked) [compound 318] |  |  |  |  |  |  |  | IC50 ([4]; Table 9, 96 h): 3.3 µM
21 | CCCCCCCCCCCCCCCCCCNC[C@@H](N)CO [drawing 52] |  |  |  | 3.3 | 2.9 |  |  | 
